One may read the melting point as the temperature of the solid-liquid transition.

Here are results for 21 molecules from patent publication US11192867B2, “Microbiocidal oxadiazole derivatives” (SYNGENTA PARTICIPATIONS AG, priority 2016, dated 2021).

The test system of data set [1] is Puccinia recondita f. sp. Tritici. Kind of data set: Fungicidal activity against Puccinia recondita f. sp. Tritici / wheat / leaf disc preventative (brown rust). Format: in vivo. The conditions noted are these: foliar, 200 ppm in the applied formulation, wheat leaf segments cv. Kanzler, inoculated 1 day after application, vs untreated control, read-out: disease control. The gist of the method: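 Preventative leaf-segment test: compound at 200 ppm applied by spray to Kanzler wheat, with spore inoculation following after one day. Disease control relative to untreated check read 7 to 9 days post-application, incubation at 19° C., 75% relative humidity, 12 h light/12 h dark.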

The test system is the same in data set [2]. Put plainly: Fungicidal activity against Puccinia recondita f. sp. Tritici / wheat / leaf disc curative (brown rust). Format: in vivo. Particulars: foliar, 24 h, 200 ppm in the applied formulation, wheat leaf segments cv. Kanzler, applied 1 day after inoculation, vs untreated control, read-out: disease control. The gist of the method:
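Curative leaf-segment test, cv. Kanzler: spore inoculation, dark storage 19° C/75% RH, compound spray 1 day post-inoculation. Then 12 h light/12 h dark, 19° C, 75% RH. Read-out: % disease control vs untreated check, 6–8 d after application.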

In the next data set the test system is Phakopsora pachyrhizi. Put plainly: Fungicidal activity against Phakopsora pachyrhizi / soybean / leaf disc preventative (Asian soybean rust). The conditions noted are these: foliar, 200 ppm in the applied formulation, soybean leaf disks, vs untreated control, read-out: disease control. Format: in vivo. The gist of the method: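 Preventative test: compound sprayed onto soybean leaf discs one day before spore inoculation of the lower leaf face. Incubation at 20 °C and 75% rh, first 24-36 h in darkness, then a 12 h light cycle. Disease control versus untreated discs read 12-14 days after application.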

Data set [3] concerns Glomerella lagenarium (Colletotrichum lagenarium). Put plainly: Fungicidal activity against Glomerella lagenarium (Colletotrichum lagenarium) liquid culture / cucumber / preventative (anthracnose). The class given is cell-based. Particulars: Colletotrichum orbiculare, 72 h; 20 ppm in the applied formulation; liquid culture (PDB), growth inhibition measured photometrically 3 to 4 days after application; vs untreated control; read-out: disease control. The gist of the method: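 PDB broth seeded with cryo-stored conidia, added onto compound (DMSO solution) in 96-well plates; 24° C.; photometric growth read at 3–4 d post-application; % inhibition vs untreated check.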

In turn, `CON=CC(C)NC(=O)c1ccc(-c2noc(C(F)(F)F)n2)cc1` (centres unmarked) [Compound 1.3, N-(2-methoxyimino-1-methyl-ethyl)-4-[5-(trifluoromethyl)-1,2,4-oxadiazol-3-yl]benzamide] showed a melting point of 164 to 165 °C. Besides, the pest or weed control at 200 ppm in data set [1] is no less than 80%. Further, the pest or weed control at 200 ppm in data set [2] is no less than 80%. Besides, the pest or weed control at 200 ppm in the data set with Phakopsora pachyrhizi is no less than 80%. The inhibition of growth at 20 ppm in data set [3] was no less than 80%.
Molecule `C#CCO/N=C\NC(=O)c1ccc(-c2noc(C(F)(F)F)n2)cc1` [Compound 1.6, N-[(Z)-prop-2-ynoxyimino-methyl]-4-[5-(trifluoromethyl)-1,2,4-oxadiazol-3-yl]benzamide] returned a melting point of 114 to 119 °C. For the same molecule, in data set [1], the pest or weed control at 200 ppm was no less than 80%. The pest or weed control at 200 ppm in data set [2] is no less than 80%. In the data set with Phakopsora pachyrhizi, the pest or weed control at 200 ppm was no less than 80%. Further, the inhibition of growth at 20 ppm in data set [3] was no less than 80%.
On to `C=CCON=CCNC(=O)c1ccc(-c2noc(C(F)(F)F)n2)cc1` [Compound 1.91, N-(2-allyloxyiminoethyl)-4-[5-(trifluoromethyl)-1,2,4-oxadiazol-3-yl]benzamide], for which the pest or weed control at 200 ppm (in data set [1]; in data set [2]; in the data set on Phakopsora pachyrhizi) was no less than 80% each time. Besides, the inhibition of growth at 20 ppm in data set [3] is no less than 80%.
Regarding `CC(C)ON=CCNC(=O)c1ccc(-c2noc(C(F)(F)F)n2)cc1` [Compound 1.94, N-(2-isopropoxyimino-ethyl)-4-[5-(trifluoromethyl)-1,2,4-oxadiazol-3-yl]benzamide], the pest or weed control at 200 ppm (in data set [1]; in data set [2]; in the data set on Phakopsora pachyrhizi) was no less than 80% throughout. Further, in data set [3], the inhibition of growth at 20 ppm was no less than 80%.
Take `O=C(NCC=NOCC(F)(F)F)c1ccc(-c2noc(C(F)(F)F)n2)cc1` [Compound 1.95, N-[2-(2,2,2-trifluoroethoxy-imino)ethyl]-4-[5-(trifluoromethyl)-1,2,4-oxadiazol-3-yl]benzamide]: the pest or weed control at 200 ppm (in data set [1]; in data set [2]; in the data set with Phakopsora pachyrhizi) was no less than 80% each time. Moreover, the inhibition of growth at 20 ppm in data set [3] was no less than 80%.
`C=C(Cl)CON=CCNC(=O)c1ccc(-c2noc(C(F)(F)F)n2)cc1` [Compound 1.100, N-[2-(2-chloroallyloxy-imino)ethyl]-4-[5-(trifluoromethyl)-1,2,4-oxadiazol-3-yl]benzamide]: the pest or weed control at 200 ppm (in data set [1]; in data set [2]; with Phakopsora pachyrhizi) was no less than 80% in each case. The inhibition of growth at 20 ppm in data set [3] was no less than 80%.
In the case of `O=C(NCC=NOCC1CC1)c1ccc(-c2noc(C(F)(F)F)n2)cc1` [Compound 1.101, N-[2-(cyclopropyl-methoxyimino)ethyl]-4-[5-(trifluoromethyl)-1,2,4-oxadiazol-3-yl]benzamide], the pest or weed control at 200 ppm (in data set [1]; in data set [2]; with Phakopsora pachyrhizi) was no less than 80% in each case. Further, the inhibition of growth at 20 ppm in data set [3] was no less than 80%.
With `O=C(NCC=NOC1COC1)c1ccc(-c2noc(C(F)(F)F)n2)cc1` [Compound 1.102, N-[2-(oxetan-3-yloxyimino)ethyl]-4-[5-(trifluoromethyl)-1,2,4-oxadiazol-3-yl]benzamide], the pest or weed control at 200 ppm (in data set [1]; in data set [2]; in the data set with Phakopsora pachyrhizi) was no less than 80% throughout. The inhibition of growth at 20 ppm in data set [3] was no less than 80%.
Consider `CC(CNC(=O)c1ccc(-c2noc(C(F)(F)F)n2)cc1)=NOCCO` [Compound 1.104], for which the pest or weed control at 200 ppm (in data set [1]; in data set [2]; with Phakopsora pachyrhizi) was no less than 80% in each case. Further, in data set [3], the inhibition of growth at 20 ppm is no less than 80%.
With `CC(CNC(=O)c1ccc(-c2noc(C(F)(F)F)n2)cc1)=NOCCN` [Compound 1.110, N-[2-(2-aminoethoxy-imino)propyl]-4-[5-(trifluoromethyl)-1,2,4-oxadiazol-3-yl]benzamide], the pest or weed control at 200 ppm (in data set [1]; in data set [2]; with Phakopsora pachyrhizi) was no less than 80% each time. For the same molecule, in data set [3], the inhibition of growth at 20 ppm is no less than 80%.
In the case of `CC(CNC(=O)c1ccc(-c2noc(C(F)(F)F)n2)cc1)=NOC1CCCCO1` (centres unmarked) [Compound 1.114, N-(2-tetrahydropyran-2-yloxyiminopropyl)-4-[5-(trifluoromethyl)-1,2,4-oxadiazol-3-yl]benzamide], the pest or weed control at 200 ppm (in data set [1]; in data set [2]; in the data set with Phakopsora pachyrhizi) was no less than 80% throughout. Further, the inhibition of growth at 20 ppm in data set [3] was no less than 80%.
Turning to `CCCON=C(C)CNC(=O)c1ccc(-c2noc(C(F)(F)F)n2)cc1` [Compound 1.116, N-(2-propoxyimino-propyl)-4-[5-(trifluoromethyl)-1,2,4-oxadiazol-3-yl]benzamide], the pest or weed control at 200 ppm (in data set [1]; in data set [2]; with Phakopsora pachyrhizi) was no less than 80% in each case. In data set [3], the inhibition of growth at 20 ppm is no less than 80%.
For the molecule `CON=C(C)CNC(=O)c1ccc(-c2noc(C(F)(F)F)n2)cc1` [Compound 1.133, N-(2-methoxyimino-propyl)-4-[5-(trifluoromethyl)-1,2,4-oxadiazol-3-yl]benzamide], the pest or weed control at 200 ppm (in data set [1]; in data set [2]; in the data set on Phakopsora pachyrhizi) was no less than 80% in each case. Besides, in data set [3], the inhibition of growth at 20 ppm is no less than 80%.
Take `C=CCON=C(C)CNC(=O)c1ccc(-c2noc(C(F)(F)F)n2)cc1` [Compound 1.135, N-(2-allyloxyimino-propyl)-4-[5-(trifluoromethyl)-1,2,4-oxadiazol-3-yl]benzamide]: the pest or weed control at 200 ppm (in data set [1]; in data set [2]; in the data set on Phakopsora pachyrhizi) was no less than 80% each time. Moreover, in data set [3], the inhibition of growth at 20 ppm is no less than 80%.
On to `CC(CNC(=O)c1ccc(-c2noc(C(F)(F)F)n2)cc1)=NOC(C)C` [Compound 1.138, N-(2-isopropoxyimino-propyl)-4-[5-(trifluoromethyl)-1,2,4-oxadiazol-3-yl]benzamide], for which the pest or weed control at 200 ppm (in data set [1]; in data set [2]; in the data set with Phakopsora pachyrhizi) was no less than 80% each time. Besides, the inhibition of growth at 20 ppm in data set [3] was no less than 80%.
In the case of `CC(CNC(=O)c1ccc(-c2noc(C(F)(F)F)n2)cc1)=NOCC1CC1` [Compound 1.145, N-[2-(cyclopropyl-methoxyimino)propyl]-4-[5-(trifluoromethyl)-1,2,4-oxadiazol-3-yl]benzamide], the pest or weed control at 200 ppm (in data set [1]; in data set [2]; with Phakopsora pachyrhizi) was no less than 80% throughout. Also, the inhibition of growth at 20 ppm in data set [3] is no less than 80%.
With `CC(CNC(=O)c1ccc(-c2noc(C(F)(F)F)n2)cc1)=NOC1COC1` [Compound 1.146, N-[2-(oxetan-3-yloxyimino)propyl]-4-[5-(trifluoromethyl)-1,2,4-oxadiazol-3-yl]benzamide], the pest or weed control at 200 ppm (in data set [1]; in data set [2]; with Phakopsora pachyrhizi) was no less than 80% each time. In addition, in data set [3], the inhibition of growth at 20 ppm was no less than 80%.
As for `CON=CC(C)NC(=O)c1ccc(-c2noc(C(F)(F)F)n2)cc1F` (centres unmarked) [Compound 1.155, 2-fluoro-N-(2-methoxyimino-1-methyl-ethyl)-4-[5-(trifluoromethyl)-1,2,4-oxadiazol-3-yl]benzamide], the melting point was in the range of 132 to 134 °C. For the same molecule, the pest or weed control at 200 ppm in data set [1] was no less than 80%. Further, in the data set on Phakopsora pachyrhizi, the pest or weed control at 200 ppm was no less than 80%. For the same molecule, the inhibition of growth at 20 ppm in data set [3] is no less than 80%.
Consider `CCON=CC(C)NC(=O)c1ccc(-c2noc(C(F)(F)F)n2)cc1F` (centres unmarked) [Compound 1.156, N-(2-ethoxyimino-1-methyl-ethyl)-2-fluoro-4-[5-(trifluoromethyl)-1,2,4-oxadiazol-3-yl]benzamide], for which the melting point lay in the range of 113 to 115 °C. Also, the pest or weed control at 200 ppm in data set [2] is no less than 80%. Also, in the data set with Phakopsora pachyrhizi, the pest or weed control at 200 ppm was no less than 80%. In addition, the inhibition of growth at 20 ppm in data set [3] is no less than 80%.
As for `CON=CCNC(=O)c1ccc(-c2noc(C(F)(F)F)n2)cc1F` [Compound 1.169, 2-fluoro-N-(2-methoxyimino-ethyl)-4-[5-(trifluoromethyl)-1,2,4-oxadiazol-3-yl]benzamide], the melting point was 116 to 118 °C.
For the molecule `CO/N=C/CN(C(=O)c1ccc(-c2noc(C(F)(F)F)n2)cc1)C1CC1` [Compound 1.170, N-cyclopropyl-N-[(2E)-2-methoxyiminoethyl]-4-[5-(trifluoromethyl)-1,2,4-oxadiazol-3-yl]benzamide], the melting point fell in the range of 60 to 62 °C.
